SMILES strings stand for the structures. Structures can show the parent of a compound that is named as a salt.

Four compounds from US4221909A, “P-Acetamidobenzoic acid salts of 9-(hydroxyalkyl) purines” (Sloan-Kettering Institute for Cancer Research, priority 1978, dated 1980) can be followed below.

Type in all cases: cell-based
For one test, the system named is Mouse spleen cells. Briefly: Mitogen Induced (Con A) Mouse Lymphocyte Proliferation. From the text: The following three assay procedures are used to evaluate the ability of the test substances to modulate the activity of several classes of cells in the immune system. In these systems it is possible to identify both immunopotentiating activity (evidence by an enhancement of the parameter examined) as well as immunosuppressant activity (evidenced by an inhibition of the parameter examined).
1. Mitogen--Induced Mouse Spleen Cell Assay--Mouse spleen cells contain a population of both B and T lymphocytes which can be stimulated by a number of foreign substances (e.g., plant mitogens such as Con A) to proliferate. This enhanced proliferation is an indication of enhanced cell mediated immunity. The method below describes the system used to evaluate test substances as immunopotentiators.
Concanavalin A (Calbiochem, La Jolla, Calif.), Lot #210073, lyophilized in NaCl, was prepared first as a 1% solution and diluted as a 2× concentration for each dilution (0.5, 1.0, 2.5 μg/ml).
Six to eight week old male Balb/c and C3 H inbred mice were obtained from the following sources: Flow Research Animals, Inc., Dublin, Va.; Charles River Breeding Laboratories, Wilmington, Mass.; Laboratory Supply Company, Indianapolis, Ind.; and Lionel Strong Foundation, San Diego, Calif.
Three to five mice were sacrificed by cervical dislocation and the spleens aseptically removed. Pooled spleens were minced and teased with sterile forceps; then strained through a double layer of nylon mesh. The cell suspension was washed once with 15 ml of RPMI 1640 supplemented with 5% fetal calf serum and antibiotics. Cells were cultured at a concentration of 10^6 cells/0.1 ml/well in micro-plates. Cultures were incubated in the presence or absence of mitogen in a humidified atmosphere containing 5% CO2 for 48 hours. The test compound was added to cultures at various concentrations concommitant with mitogen.
Proliferation was assayed by the degree of incorporation of 1.0 μCi of [^3 H] thymidine over an 18 hour incubation period. Cultures were harvested by a MASH unit (Otto Hiller Co., Madison, Wisconsin) and thymidine incorporation was assayed by liquid scintillation spectrometry. Cultures were performed in triplicate and data are expressed as means plus or minus the strandard error of the experimental means. Drug stimulation indices over control values were also calculated and portrayed graphically.

Test [1] has as its system human peripheral blood lymphocytes. Kind of test: Mitogen Induced (PHA) Human Lymphocyte Proliferation.
Another test deals with influenza virus. Kind of test: Anti-influenza activity (summary).
In test [2] the test system is Influenza A USSR/90(H1 N1). Kind of test: Anti-Influenza Activity (Hemadsorption Assay), Influenza A USSR/90. Here is the method: Upon infection of a monolayer of tissue culture cells by influenza virus, the cell surface is altered so that guinea pig erythrocytes can be adsorbed to the cell surface. The number of foci of adsorbed cells (hemadsorption foci forming units HAFFU) is a quantitative measure of infectivity. The method is as follows.
The monolayers were subcultured in the following manner: The medium was poured off, and the monolayer washed two times with approximately 50 ml per wash of calcium and magnesium free phosphate buffered saline (PBS), (GIBCO #419) at a pH of 7.2. One ml of trypsin-EDTA solution (GIBCO #530L) containing 0.5 g trypsin (1:250) and 2.0 g EDTA/liter of Modified Puck's Saline A was added at 37° C. to each flask and dispersed over the monolayer with gentle shaking. The flasks were then placed in an incubator at 37° C. for approximately 3-5 minutes depending on the time required to dislodge the cells. Occasional shaking was required. Ten ml of planting medium was added to each flask and the cells dispersed by aspirating and expelling the suspension from the pipette. The contents of a series of flasks were pooled and the cells in the suspension were diluted with planting medium to 7-8.5×10^4 cells/ml. The planting medium consisted of the following composition: Minimum Essential Medium Eagles (MEM) with Earle's salts and HEPES buffer (GIBCO #236) supplemented by adding the following substances as specified to 87 ml of MEM:
The following day the medium was removed and replaced with fresh planting medium. The monolayers were used for experimentation when they reached a condition in which they were almost confluent (approximately 3-4 days).
When the Linbro tray HeLa cell cultures were ready for experimentation (see cells), the medium was decanted and 1 ml of maintenance medium (MEM with FCS reduced to 3%) containing the compound being tested at a given concentration was added to 4 replicate cultures within a tray.
A series of different drug concentrations ranging from 2.3 to 150 μg/ml were used. Maintenance medium alone was used for control cultures. After the administration of drug and control medium, 0.1 ml of the diluted viral suspension was added to experimental groups and infected control cultures. Saline alone was added to non-infected control cultures. The Linbro trays were then incubated at 37° C. for 18 hours, after which media in all groups was aspirated. Each culture was washed once with PBS. The saline was aspirated and 0.5 ml of a 0.4% v/v guinea pig red blood cell suspension in PBS was added to each culture well. The cultures remained at room temperature for 30 minutes after which the medium was decanted and culture washed […] with PBS to remove all but the specifically bound red cells. After the third wash, maintenance medium was added to all cultures.
A Howard Micrometer eyepiece (C8385) was inserted within the ocular of a Nikon inverted phase contrast microscope. Each culture was scanned with a 4× low paper objective and direct counts of hemadsorbed red cells were counted using the eyepiece grid as a field marker. Partial or complete fields were counted per experimental group depending on the resulting number and density of hemadsorbed cells in the infected control cultures. Magnification of 60× or 150× were chosen to obtain the best conditions for enumerating the hemadsorbed cells. Field factors were calculated for counting hemadsorption at 60× and 150×. At 60× magnification, total field count was calculated using a multiplication factor of 55.5. At 150× magnification the multiplication factor was 273. The multiplication factors of 55.5 and 273 represent the total number of fields at 60× and 150× magnifications, respectively. The number of fields counted ranged from 3 to 5 per well with 3 to 4 wells per treatment group employed (see raw data tables in results section for number of fields examined). Means and standard errors were calculated and the data was evaluated using student's t-test analysis.

With `CCCCCC[C@H]([C@H](C)O)n1cnc2c(N)ncnc21` (relative stereo) [NPT 15426, Erythro-9-(2-Hydroxy-3-Nonyl)-Adenine. HCl], the “Maximum Percent Change, Mitogen Induced (Con A) Mouse Lymph. Prolif.” value in the test on Mouse spleen cells (1.0-10) was -85%; in the test with Mouse spleen cells (10-100), -91%; in the test on Mouse spleen cells (.01-1.0), -50%. The “Maximum Percent Change, Mitogen Induced (PHA) Human Lymph. Prolif.” value is -41% in test [1] (1.0-10) and 6% in test [1] (.01-1.0). Also, the “anti-influenza activity by themselves” value in the test on influenza virus is given as “significant anti-influenza activity”.
Consider `OCCn1cnc2c(S)ncnc21` [NPT 15437], for which the “% Inhibition of Hemadsorption Foci” value in test [2] (Conc. 10-100 μg/ml) is 65%; in test [2] (Conc. >100 μg/ml, listed as 15437), 65%. In the test on influenza virus, the “DIP.PAcBA potentiation of Anti-Influenza activity” value (shortened to “DIP.PAcBA potentiation”) was “Yes”.
As to `CC(CO)n1cnc2c(=O)[nH]cnc21` (stereo not shown) [NPT 15444], the “% Inhibition of Hemadsorption Foci” value in test [2] (Conc. 10-100 μg/ml, listed as 15444) is 44%; in test [2] (Conc. >100 μg/ml, listed as 15444), 54%. The “DIP.PAcBA potentiation” value with influenza virus was “Yes”.
For the compound `CC(O)Cn1cnc2c(=O)[nH]cnc21` (stereo not shown) [NPT 15447], the “% Inhibition of Hemadsorption Foci” value in test [2] (Conc. 10-100 μg/ml, listed as 15447) came to 26%; in test [2] (Conc. <10 μg/ml, listed as 15447), 10%; in test [2] (Conc. >100 μg/ml, listed as 15447), 34%. The “DIP.PAcBA potentiation” value with influenza virus is reported as “Yes”.
